# Experimental data from patent US7612065B2, “Inhibitors of c-JUN N-terminal kinases (JNK)” (priority 2007, dated 2009).
# pKi: −log10 of the molar value.
# Biological target: T1, JNK3 (Homo sapiens, UniProt P53779)
# T1 construct: One such construct encodes amino acid residues Ser40-Glu402 of JNK3α1 and is preceded by Met and Gly residues; Met-Gly (initiation methionine plus glycine added for the NcoI site); made in house; host or cells: E. coli BL21 (DE3)
# Test: JNK inhibition assay: spectrophotometric coupled-enzyme assay with activated JNK3
# Assay type: biochemical
# Conditions: activated JNK3 10 nM, 10 μM ATP, 200 μM EGF receptor peptide, 30° C., competitive inhibition model
# Source text: A BLAST search of the EST database using the published JNK3α1 cDNA as a query identified an EST clone (#632588) that contained the entire coding sequence for human JNK3α1. Polymerase chain reactions (PCR) using pfu polymerase (Strategene) were used to introduce restriction sites into the cDNA for cloning into the pET-15B expression vector at the NcoI and BamHI sites. The protein was expressed in E. coli. […] This truncation corresponds to Ser 2 of JNK1 and JNK2 proteins, and is preceded by a methionine (initiation) and a glycine residue. The glycine residue was added in order to introduce an NcoI site for cloning into the expression vector. In addition, systematic C-terminal truncations were performed by PCR to identify a construct that give rise to diffraction-quality crystals.
# 5 mg of JNK3 was diluted to 0.5 mg/ml in 50 mM HEPES buffer, pH 7.5, containing 100 mM NaCl, 5 mM DTT, 20 mM MgCl2 and 1 mM ATP. GST-MKK7(DD) was added at a molar ratio of 1:2.5 GST-MKK7:JNK3. After incubation for 30 minutes at 25° C., the reaction mixture was concentrated 5-fold by ultrafiltration in a Centriprep-30 (Amicon, Beverly, Mass.), diluted to 10 ml and an additional 1 mM ATP added. This procedure was repeated three times to remove ADP and replenish ATP. The final addition of ATP was 5 mM and the mixture incubated overnight at 4° C.
# The activated JNK3/GST-MKK7(DD) reaction mixture was exchanged into 50 mM HEPES buffer, pH 7.5, containing 5 mM DTT and 5% glycerol (w/v) by dialysis or ultrafiltration. The reaction mixture was adjusted to 1.1 M potassium phosphate, pH 7.5, and purified by hydrophobic interaction chromatography (at 25° C.) using a Rainin Hydropore column. […] Activated JNK3 (i.e. doubly phosphorylated JNK3) was stored at −70° C. at 0.25-1 mg/ml.
# Compounds were assayed for the inhibition of JNK3 by a spectrophotometric coupled-enzyme assay. In this assay, a fixed concentration of activated JNK3 (10 nM) was incubated with various concentrations of a potential inhibitor dissolved in DMSO for 10 minutes at 30° C. in a buffer containing 0.1 M HEPES buffer, pH 7.5, containing 10 mM MgCl2, 2.5 mM phosphoenolpyruvate, 200 μM NADH, 150 μg/mL pyruvate kinase, 50 μg/mL lactate dehydrogenase, and 200 μM EGF receptor peptide. […] The reaction was initiated by the addition of 10 μM ATP and the assay plate is inserted into the spectrophotometer's assay plate compartment that was maintained at 30° C. The decrease of absorbance at 340 nm was monitored as a function of time. The rate data as a function of inhibitor concentration was fitted to competitive inhibition kinetic model to determine the Ki.
# T1 sequence (P53779 40-402): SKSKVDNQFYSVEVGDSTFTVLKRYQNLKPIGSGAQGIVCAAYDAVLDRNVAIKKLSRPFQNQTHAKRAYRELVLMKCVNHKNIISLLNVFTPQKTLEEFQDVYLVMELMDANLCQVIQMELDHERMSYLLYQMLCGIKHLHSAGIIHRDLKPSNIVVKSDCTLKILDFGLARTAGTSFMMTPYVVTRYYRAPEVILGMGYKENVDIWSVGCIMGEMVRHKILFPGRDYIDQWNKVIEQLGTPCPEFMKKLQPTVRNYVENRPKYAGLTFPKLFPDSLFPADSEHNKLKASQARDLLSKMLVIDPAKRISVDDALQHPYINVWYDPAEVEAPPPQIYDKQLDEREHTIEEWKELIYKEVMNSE
row,SMILES,pKi
1,O=C1/C(=N\O)c2ccc(-c3ccccc3C(F)(F)F)cc2N1Cc1cc(F)cc2c1OCOC2 [Compound 314],≤ 6.00
2,O=C(NCCc1c[nH]cn1)c1ccc2c(c1)N(Cc1cc(F)cc3c1OCOC3)C(=O)/C2=N\O [Compound 292],≤ 6.00
3,COc1cc(CN2C(=O)/C(=N\O)c3cc(Cl)ccc32)cc(OC)c1 [Compound 74],> 6.00
4,O=C1/C(=N\O)c2ccc(NS(=O)(=O)c3ccc(Cl)cc3)cc2N1Cc1cc(F)cc2c1OCOC2 [Compound 213],≤ 6.00
5,O=C1/C(=N\O)c2cc(F)ccc2N1Cc1ccccc1F [Compound 59],≤ 6.00
6,COc1ccc(S(=O)(=O)Nc2ccc3c(c2)N(Cc2cc(F)cc4c2OCOC4)C(=O)/C3=N\O)cc1 [Compound 265],≤ 6.00
7,CCc1cccc2c1/C(=N/O)C(=O)N2Cc1cc(F)cc2c1OCOC2 [Compound 325],≤ 6.00
8,O=C1/C(=N\O)c2cc(Br)ccc2N1Cc1ccccc1F [Compound 29],≤ 6.00
9,COc1ccccc1-c1nc(CN2C(=O)/C(=N\O)c3cc(C)cc(C)c32)no1 [Compound 90],≤ 6.00
10,O=C1/C(=N\O)c2cc(Br)ccc2N1Cc1ccc([N+](=O)[O-])cc1 [Compound 25],≤ 6.00
11,O=C1/C(=N\O)c2ccccc2N1Cc1cc(F)cc2c1OCOC2 [Compound 69],> 6.00
12,CCOC(=O)CCNC(=O)c1ccc2c(c1)N(Cc1cc(F)cc3c1OCOC3)C(=O)/C2=N\O [Compound 296],≤ 6.00
13,O=C1/C(=N\O)c2ccccc2N1Cc1cccc(Cl)c1 [Compound 9],≤ 6.00
14,O=C(Nc1ccc2c(c1)N(Cc1cc(F)cc3c1OCOC3)C(=O)/C2=N\O)N1CCOCC1 [Compound 257],≤ 6.00
15,CC(C)CCN(CCC(C)C)c1ccc2c(c1)/C(=N/O)C(=O)N2Cc1cc(F)cc2c1OCOC2 [Compound 308],≤ 6.00
16,Nc1ccc2c(c1)/C(=N/O)C(=O)N2Cc1cc(F)cc2c1OCOC2 [Compound 285],≤ 6.00
17,O=C1/C(=N\O)c2ccc(-c3cc4ccccc4o3)cc2N1Cc1cc(F)cc2c1OCOC2 [Compound 318],> 6.00
18,CC(=O)OC(C(=O)Nc1ccc2c(c1)N(Cc1cc(F)cc3c1OCOC3)C(=O)/C2=N/O)c1ccccc1 (centres unmarked) [Compound 322],≤ 6.00
19,O=C(NCc1cccc(Cl)c1)c1ccc2c(c1)N(Cc1cc(F)cc3c1OCOC3)C(=O)/C2=N\O [Compound 234],≤ 6.00
20,O=C(NCc1ccc(F)cc1)c1ccc2c(c1)N(Cc1cc(F)cc3c1OCOC3)C(=O)/C2=N\O [Compound 227],> 6.00
21,O=C(NCc1ccncc1)c1ccc2c(c1)N(Cc1cc(F)cc3c1OCOC3)C(=O)/C2=N\O [Compound 238],≤ 6.00
22,O=C1/C(=N\O)c2ccc(-c3ccccc3)cc2N1Cc1ccccc1-c1ccccc1 [Compound 162],≤ 6.00

row,SMILES,pKi
1,Nc1cccc2c1/C(=N/O)C(=O)N2Cc1cc(F)cc2c1OCOC2 [Compound 282],≤ 6.00
2,Cc1cc2c(cc1C(=O)c1ccccc1)/C(=N/O)C(=O)N2Cc1cc(F)cc2c1OCOC2 [Compound 351],≤ 6.00
3,O=C1/C(=N\O)c2ccccc2N1Cc1ccc(Cl)cc1 [Compound 10],≤ 6.00
4,CCCCc1cccc2c1/C(=N/O)C(=O)N2Cc1cc(F)cc2c1OCOC2 [Compound 337],> 6.00
5,O=C(c1ccc2c(c1)N(Cc1cc(F)cc3c1OCOC3)C(=O)/C2=N\O)N1CCOCC1 [Compound 228],≤ 6.00
6,O=C1/C(=N\O)c2c(-c3ccc(F)cc3)cccc2N1Cc1cc(F)cc2c1OCOC2 [Compound 204],≤ 6.00
7,Cc1ccc(CN2C(=O)/C(=N\O)c3cc([N+](=O)[O-])ccc32)cc1 [Compound 33],≤ 6.00
8,O=C(Cc1cccs1)Nc1ccc2c(c1)N(Cc1cc(F)cc3c1OCOC3)C(=O)/C2=N\O [Compound 219],> 6.00
9,CC(C)CNc1ccc2c(c1)/C(=N/O)C(=O)N2Cc1cc(F)cc2c1OCOC2 [Compound 311],≤ 6.00
10,O=C1/C(=N\O)c2cc(Br)ccc2N1Cc1cc(F)cc2c1OCOC2 [Compound 278],> 6.00
11,Cc1cc(Cl)cc2c1N(Cc1cccc([N+](=O)[O-])c1)C(=O)/C2=N\O [Compound 98],> 6.00
12,COc1ccc(-c2nc(CN3C(=O)/C(=N\O)c4cc(F)ccc43)no2)cc1 [Compound 109],≤ 6.00
13,O=C1/C(=N\O)c2ccc(-c3ccc(F)cc3F)cc2N1Cc1cc(F)cc2c1OCOC2 [Compound 313],> 6.00
14,COc1ccccc1C(=O)Nc1ccc2c(c1)N(Cc1cc(F)cc3c1OCOC3)C(=O)/C2=N\O [Compound 256],> 6.00
15,O=C(CN1C(=O)/C(=N\O)c2cc(Br)ccc21)OCc1ccccc1 [Compound 158],≤ 6.00
16,COc1ccc(CN2C(=O)/C(=N\O)c3cc(C)cc(C)c32)cc1 [Compound 87],≤ 6.00
17,COc1cc(CN2C(=O)/C(=N\O)c3cc(F)ccc32)cc(OC)c1 [Compound 84],> 6.00
18,CCC(C(=O)Nc1ccc2c(c1)N(Cc1cc(F)cc3c1OCOC3)C(=O)/C2=N/O)c1ccccc1 (centres unmarked) [Compound 323],> 6.00
19,O=C1/C(=N\O)c2cc(Cl)ccc2N1Cc1ccc(F)cc1 [Compound 46],≤ 6.00
20,COCC(=O)Nc1ccc2c(c1)N(Cc1cc(F)cc3c1OCOC3)C(=O)/C2=N\O [Compound 214],> 6.00
21,O=C(Nc1ccc2c(c1)N(Cc1cc(F)cc3c1OCOC3)C(=O)/C2=N/O)c1cccc(Oc2ccccc2)c1 [Compound 320],≤ 6.00
22,COc1ccc2c(c1)N(Cc1cc(F)cc3c1OCOC3)C(=O)/C2=N\O [Compound 156],> 6.00

row,SMILES,pKi
1,O=C1/C(=N\O)c2cc([N+](=O)[O-])ccc2N1Cc1cc(F)cc2c1OCOC2 [Compound 284],≤ 6.00
2,O=C1/C(=N\O)c2c(CCc3ccccc3)cccc2N1Cc1cc(F)cc2c1OCOC2 [Compound 306],≤ 6.00
3,O=C(Nc1ccc2c(c1)N(Cc1cc(F)cc3c1OCOC3)C(=O)/C2=N\O)c1ccccc1Br [Compound 343],> 6.00
4,O=C(O)c1ccc(-c2ccc3c(c2)N(Cc2cc(F)cc4c2OCOC4)C(=O)/C3=N\O)cc1 [Compound 154],> 6.00
5,COc1ccc(-c2ccc3c(c2)N(Cc2cc(F)cc4c2OCOC4)C(=O)/C3=N\O)cc1 [Compound 329],≤ 6.00
6,Cc1cccc(CN2C(=O)/C(=N\O)c3cc([N+](=O)[O-])ccc32)c1 [Compound 34],≤ 6.00
7,COC(=O)c1cccc(CN2C(=O)/C(=N/O)c3ccc(CBr)cc32)c1 [Compound 189],> 6.00
8,COC(=O)CC(=O)Nc1ccc2c(c1)N(Cc1cc(F)cc3c1OCOC3)C(=O)/C2=N\O [Compound 259],> 6.00
9,CC(=O)Nc1ccc2c(c1)N(Cc1cc(F)cc3c1OCOC3)C(=O)/C2=N\O [Compound 210],> 6.00
10,O=C(c1ccc2c(c1)/C(=N\O)C(=O)N2Cc1cc(F)cc2c1OCOC2)c1ccccc1Cl [Compound 356],> 6.00
11,COc1cc(CN2C(=O)/C(=N\O)c3ccc(C(F)(F)F)cc32)cc(OC)c1 [Compound 164],> 6.00
12,O=C(Nc1ccc2c(c1)/C(=N/O)C(=O)N2Cc1ccccc1)c1cccc2ccccc12 [Compound 136],≤ 6.00
13,O=C(NCCN1CCCCC1)c1ccc2c(c1)N(Cc1cc(F)cc3c1OCOC3)C(=O)/C2=N\O [Compound 298],≤ 6.00
14,Cc1ccccc1-c1ccc2c(c1)N(Cc1cc(F)cc3c1OCOC3)C(=O)/C2=N\O [Compound 316],> 6.00
15,O=C(Nc1ccc2c(c1)N(Cc1cc(F)cc3c1OCOC3)C(=O)/C2=N\O)N1CCOCC1 [Compound 269],> 6.00
16,O=C1/C(=N\O)c2cc(-c3c(F)cccc3F)ccc2N1Cc1ccccc1 [Compound 157],≤ 6.00
17,O=C1/C(=N\O)c2ccc(C(F)(F)F)cc2N1Cc1cc(F)cc2c1OCOC2 [Compound 165],> 6.00
18,O=C1/C(=N\O)c2ccccc2N1Cc1ccc([N+](=O)[O-])cc1 [Compound 18],≤ 6.00
19,O=C1/C(=N\O)c2c(-c3ccccc3)cccc2N1Cc1cc(F)cc2c1OCOC2 [Compound 202],≤ 6.00
20,O=C(Nc1ccc2c(c1)N(Cc1cc(F)cc3c1OCOC3)C(=O)/C2=N\O)c1cc(=O)c2ccccc2o1 [Compound 218],≤ 6.00
21,Cc1cc2c(c(CN3C(=O)/C(=N\O)c4ccc(C(=O)O)cc43)c1)OCOC2 [Compound 216],> 6.00
